Laboratory results from patent US5254459A, “Nucleotide and amino acid sequences of protein MTP40 of M. tuberculosis and synthetic peptides derived therefrom” (priority 1992, dated 1993).
No end group written: not given here.

Test system: sera from tuberculosis patients
Experiment: ELISA recognition of synthetic MTP40 peptides by human sera
Format: binding
Settings: sera from active tuberculosis patients having B(+) sputum; peptide coated at 3 micrograms per well

WLKLGLVEFGGVAKLNAEVMS [S698, synthetic peptide derived from M. tuberculosis MTP40 protein]
percentage of sera recognizing the peptide (ELISA): 20.8%
